Row | melting point [°C] | Structure (SMILES)
1 | 124 to 126 | CN(C)S(=O)(=O)c1cccc2c1Sc1ccc(OCc3ccccc3)cc1N2CCCCl
2 | 203 to 205 | COc1ccc(Cn2c(C(=O)O)c(-c3ccc4c(c3)OCO4)c3cc(OCC(=O)O)ccc32)c(OCC(=O)O)c1
3 | 204 to 206 | O=C(CN1CCOCC1)Oc1ccc2c(=O)c3c(oc2c1)C(=Cc1ccccc1)CC3
4 | 240 | NC1c2ccccc2-c2[nH]c(=O)c3nccn3c21 (stereo not given)
5 | 100 to 110 | Cc1cc(SC2=C(O)CC(CCc3ccccn3)(C(C)C)OC2=O)c(C(C)(C)C)cc1CO (stereo not given)
6 | 138 | Cc1nc(C(CC(C)C)Nc2c(C#N)cnn3cccc23)sc1C (stereo not given)
7 | 280 | COc1ccc2[nH]cc(C3=C(c4c[nH]c5ccccc45)C(=O)NC3=O)c2c1
8 | 117 to 122 | O=C(Nc1cc(Cc2n[nH]c(=O)c3ccccc23)ccc1N1CCOCC1)c1cccc(CCl)c1
9 | 189 to 191 | CC1Cc2cc(Cl)c(Cl)cc2C(c2ccc([N+](=O)[O-])cc2)O1 (stereo not given)
10 | 154 to 155 | N#CN=C(Nc1cccnc1)Oc1ccccc1
11 | 212 to 214 | CN1CCN(c2cccc3c2C[C@H](NC(=O)c2ccc(C(F)(F)F)cc2)CO3)CC1
12 | 123 to 125 | ON=C1CC(c2ccccc2)c2ccccc21 (stereo not given)
13 | 163 | CC(=O)C1CCC2C3CCC4CC(O)C(N5CCOC(C)(C)C5)CC4(C)C3C(=O)CC12C (stereo not given)
14 | 177 to 179 | COc1ccc(Cn2cnc3c(-c4ccco4)nc(Cl)nc32)cc1C
15 | 117 | CCCCOc1ccc(-c2cnc(Cl)nc2)cn1
16 | 199 to 201 | Cc1cc2c(cc1C)C1(CO2)C(=O)N(CC2CCOCC2)c2ccccc21 (stereo not given)
17 | 254 to 255 | O=C1OCc2c(c3cc(-c4ccc(-c5ccccc5)cc4)ccc3n2Cc2ccccc2)C1=O
18 | 214 | Cc1cc(C2CCC(c3ccc(O)cc3)CC2)ccc1O (stereo not given)

Row | melting point [°C] | Structure (SMILES)
19 | 143 to 144 | O=C(NNC(=O)C(Cl)(Cl)Cl)c1cccc(Cl)c1
20 | 95 to 96 | C#CCNc1nc(NCC=C)nc2c(C)csc12
21 | 189 to 190 | CCSc1ccc(CC(=O)NC(NC(=NC#N)Nc2cccc3ncccc23)C(C)(C)C)cc1 (stereo not given)
22 | 203 to 204 | Cc1cccc(-c2nc3cccnn3c2-c2ccnc(NC(=O)C3CC3)c2)c1
23 | 124 to 127 | CCS(=O)(=O)N[C@H](C(=O)NCCc1ccc(OCc2ccc(Cl)s2)c(OC)c1)C(C)C
24 | 141 to 145 | Cc1cccc2[nH]cnc12
25 | 86.8 to 89.2 | COCCCCCCCCCCCC(N)=S
26 | 77 to 78 | CC(=O)OCCCn1cc(C2=C(c3ccccc3[N+](=O)[O-])C(=O)NC2=O)c2ccccc21
27 | 115 to 116 | CC(C)(C)c1cc(CCC(CCc2cc(C(C)(C)C)c(O)c(C(C)(C)C)c2)OC(=O)c2ccccc2)cc(C(C)(C)C)c1O
28 | 81 to 82 | COC(=O)CCCNC(=O)C(CSC(C)=O)Cc1ccccc1 (stereo not given)
29 | 187 to 189 | CN1CCC(c2nn(C(=O)c3ccc(Cl)c(Cl)c3)c3ccccc23)CC1
30 | 82 to 84 | C=CCNc1nc(NC/C=C/c2ccccc2)c2scc(C)c2n1
31 | 160 to 161 | NS(=O)(=O)c1ccc(-c2cccn2-c2ccc(F)cc2)cc1
32 | 218 to 219 | COc1cc(C(=O)O)ccc1Cc1c[nH]c2ccc(NC(=O)CC3CCCC3)cc12
33 | 122 to 123 | CC[C@@H]1C(=O)N(Cc2ccc(OC)cc2OC)[C@H]1C(=O)O (relative stereo)
34 | 190 to 195 | CC(C)(C)OC(=O)c1ccc(C=Cc2cnc(N)c(C#N)c2)cc1
35 | 152 to 154 | COC(=O)CCC/C=C(/c1cc(C)c2on(C)c(=O)c2c1)c1cc(C)c2oc(=O)n(C)c2c1
36 | 160 to 162 | CN1CCC(Oc2ccc(Br)cc2C(N)=O)C1 (stereo not given)

Continued, molecule first:

Row | Structure (SMILES) | melting point [°C]
37 | Cc1nc(-c2c(Cl)cc(C(F)(F)F)cc2Cl)[nH]c1S(=O)(=O)Cl | 227 to 230
38 | CCCCc1cc2cc(N)ccn2c1C(=O)c1ccc(OCCCN(CCCC)CCCC)cc1 | 88 to 89
39 | O=c1[nH]cncc1Cc1cccnc1 | 145 to 148
40 | O=C1CCN(c2ncc(-c3ccc(Cl)cc3Cl)nn2)CC1 | 120 to 122
41 | COc1ccc2c(c1)CCC2=NNS(=O)(=O)c1ccc(C)cc1 | 195 to 196
42 | Fc1ccc(-c2cc(C(F)(F)F)n[nH]2)c(F)c1 | 157 to 158
43 | CS(=O)(=O)OCCNc1ccc([N+](=O)[O-])cc1Cl | 114 to 115
44 | CCC(C(=O)O)N(C(=O)c1cccn1-c1ccc(F)cc1)c1ccc(N2CCCCC2)c(C#N)c1 (stereo not given) | 138 to 139
45 | C=CCSc1nnc(OC)c2c1CCCC2 | 46 to 48
46 | CS(=O)(=O)Nc1ccc(C(=O)CN(Cc2ccccc2)Cc2ccccc2)cc1 | 131 to 134
47 | C=CCOc1nc2cc(OC)c(OC)cc2c2ncnn12 | 189 to 191
48 | CC(C)(C)C(NCCSC12CC3CC(CC(C3)C1)C2)C(=O)O (stereo not given) | 220 to 230
49 | Clc1cnc2ccc(Br)cc2n1 | 145
50 | O=C1NCc2cc(C(O)c3cccnc3)ccc2N1 (stereo not given) | 272
51 | Brc1cc(Br)cc(Cc2cc(Br)cc(Br)c2)c1 | 196
52 | CSc1cc2cc(-c3ccccc3)ccc2cc1O | 129 to 130
53 | O=C(NCCN(C1CC1)S(=O)(=O)c1ccccc1[N+](=O)[O-])N1CCN2C(=O)OC(c3cccc(F)c3)(c3cccc(F)c3)C2C1 (stereo not given) | 203

Row | Structure (SMILES) | melting point [°C]
54 | CCCCCCCCCc1ccccc1O | 80
55 | COC(=O)c1ccc2c(c1)SCCCC2=O | 63 to 64
56 | COC(=O)C[C@H]1[C@@H](C(C)=O)C(=O)N1C(c1ccccc1)(c1ccccc1)c1ccccc1 | 52 to 54
57 | CCS(=O)(=O)Nc1cccc(C)c1C(N)c1cccn2c(C)c(C)nc12 (stereo not given) | 240 to 242
58 | CN(CCc1ccc(O)c(O)c1)C(=O)/C=C/c1cccnc1 | 155 to 158
59 | NS(=O)(=O)Oc1ccc2c(c1)S(=O)(=O)N=C2C1CCCCC1 | 170
60 | CCN(CC)c1ccc2cc(C(=O)NN)oc2c1 | 127 to 129
61 | O=C(O)c1cn(-c2ccc(F)cc2F)c2c(F)c(N3Cc4ccc(Cl)cc4C3)c(F)cc2c1=O | 242 to 247
62 | N=C(N)c1cccc(CN(C(=O)Nc2ccc(-c3ccccc3S(N)(=O)=O)cc2)c2ccccc2)c1 | 201 to 202
63 | O=C1CC(c2ccc(Cl)cc2)CO1 (stereo not given) | 52 to 54
64 | O=c1c2ccc(O)cc2[nH]c2c([N+](=O)[O-])ccc(Cl)c12 | 292 to 294
65 | CCOc1nn(Cc2ccnc(OCc3nc(-c4ccco4)oc3C)c2)cc1CCC(=O)O | 138 to 139
66 | Fc1ccc([C@H]2CC[C@H](N3CCN(Cc4ccc5ccccc5n4)CC3)CC2)cc1 | 160 to 162
67 | CON=Cc1cc(Cl)cc(Cl)c1 | 53
68 | CCN(Cc1cc(Br)ccc1OCc1ccccc1)c1ccc(C(=O)NCc2cccnc2)cc1 | 119 to 121
69 | COc1cc(Nc2nccc(-c3ccc(N)cc3)n2)cc(OC)c1OC | 195
70 | C=CCSc1cc(C(=O)O)cc(N=Nc2cc(C(=O)O)cc(SCC=C)c2C(=O)c2ccccc2)c1C(=O)c1ccccc1 | 162 to 163
